According to patent US10947252B2, “Inhibitors of KEAP1-Nrf2 protein-protein interaction” (Janssen Pharmaceutica NV, priority 2018, dated 2021):

Assays:
[1] = biological target: Kelch domain of human KEAP1 (321-624 aa) (Homo sapiens (Human), UniProt Q14145); assay: KEAP1 KELCH ThermoFluor binding assay; conditions: KEAP Kelch […], 1,8-ANS, pH 7.0, average of results obtained, read-out: Tf Kd;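 further: Ligand-induced melting temperature shift of E. coli-expressed KEAP1 Kelch protein, Kd estimated from concentration-response curves of ΔTm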
[2] = system: Glo-Response ARE-luc2P HEK293 cell line; assay: ARE luciferase reporter cell-based assay; conditions: Homo sapiens, HEK293, 24 h, average of results obtained;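 further: luciferase signal tracks Nrf2 activation of the ARE once compounds disrupt KEAP1-Nrf2 binding, read with One-Glo reagent, DMSO serving as low control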

Kelch domain of human KEAP1 (321-624 aa), sequence (Q14145 321-624): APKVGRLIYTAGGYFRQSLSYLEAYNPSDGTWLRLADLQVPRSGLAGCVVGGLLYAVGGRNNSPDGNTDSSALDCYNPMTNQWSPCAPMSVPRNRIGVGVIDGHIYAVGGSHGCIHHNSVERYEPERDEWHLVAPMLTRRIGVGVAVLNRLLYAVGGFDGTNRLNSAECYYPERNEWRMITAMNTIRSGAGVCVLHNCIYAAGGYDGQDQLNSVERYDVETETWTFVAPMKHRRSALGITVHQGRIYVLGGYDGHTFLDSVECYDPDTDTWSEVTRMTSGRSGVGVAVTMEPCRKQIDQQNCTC

Row | Compound | Kd [1] | EC50 [2]
1 | Cc1cnc([C@H](c2ccn3c(C(F)F)nnc3c2C)C(C)(C)C(=O)O)cc1CN1CC2(CCOCC2)Oc2nc(OCCN3CCCC3)c(C)cc2S1(=O)=O (single isomer, unassigned) [Example 639, (*R)-3-(3-(Difluoromethyl)-8-methyl-[1,2,4]triazolo[4,3-a]pyridin-7-yl)-2,2-dimethyl-3-(5-methyl-4-((8′-methyl-1′,1′-dioxido-7′-(2-(pyrrolidin-1-yl)ethoxy)-2,3,5,6-tetrahydrospiro[pyran-4,4′-pyrido[2,3-b][1,4,5]oxathiazepin]-2′(3′H)-yl)methyl)pyridin-2-yl)propanoic Acid] | 1820 nM | 5170 nM
2 | Cc1cnc2c(c1)S(=O)(=O)N(Cc1nc([C@H](CC(=O)O)c3ccn4c(C(F)(F)F)nnc4c3C)ccc1C)C[C@H]1CCCCN21 (single isomer, unassigned) [Example 492, (*R)-3-(8-Methyl-3-(trifluoromethyl)-[1,2,4]triazolo[4,3-a]pyridin-7-yl)-3-(5-methyl-6-(((*R)-3-methyl-5,5-dioxido-7,7a,8,9,10,11-hexahydro-6H-dipyrido[2,1-d:2′,3′-f][1,2,5]thiadiazepin-6-yl)methyl)pyridin-2-yl)propanoic Acid] | < 1 nM | 12.9 nM
3 | Cc1c([C@H](CC(=O)O)c2ccc(Cl)c(CN3CC4CCCCN4c4ncccc4S3(=O)=O)c2)ccn2c(C(F)(F)F)nnc12 (single isomer, unassigned) [Example 85, (*R)-3-(4-Chloro-3-(((*S)-5,5-dioxido-7,7a,8,9,10,11-hexahydro-6H-dipyrido[2,1-d:2′,3′-f][1,2,5]thiadiazepin-6-yl)methyl)phenyl)-3-(8-methyl-3-(trifluoromethyl)-[1,2,4]triazolo[4,3-a]pyridine-7-yl)propanoic Acid] | 2.2 nM | 1510 nM
4 | Cc1ccc(C(CC(=O)O)c2ccn3c(C(F)(F)F)nnc3c2C)cc1CN1CC2CCC(F)(F)CN2c2ncccc2S1(=O)=O (centres unmarked) [Example 452, 3-(3-((10,10-Difluoro-5,5-dioxido-7,7a,8,9,10,11-hexahydro-6H-dipyrido[2,1-d:2′,3′-f][1,2,5]thiadiazepin-6-yl)methyl)-4-methylphenyl)-3-(8-methyl-3-(trifluoromethyl)-[1,2,4]triazolo[4,3-a]pyridin-7-yl)propanoic Acid] | < 1 nM | 116 nM
5 | CCn1nnc2c(C)c(C(CC(=O)O)c3ccc(C)c(CN4C[C@H]5CCCCN5c5ncccc5S4(=O)=O)n3)ccc21 (stereo in doubt) [Example 304, 3-(6-(((*R)-5,5-Dioxido-7,7a,8,9,10,11-hexahydro-6H-dipyrido[2,1-d:2′,3′-][1,2,5]thiadiazepin-6-yl)methyl)-5-methylpyridin-2-yl)-3-(1-ethyl-4-methyl-1H-benzo[d][1,2,3]triazol-5-yl)propanoic Acid] | < 1 nM | 2.9 nM
6 | CCn1nnc2c(C)c(C(c3cnc(C)c(CN4CC5(CCOCC5)Oc5ncc(C)cc5S4(=O)=O)c3)C(C)(C)C(=O)O)ccc21 (racemic) [Example 61, (R/S)-3-(1-Ethyl-4-methyl-1H-benzo[d][1,2,3]triazol-5-yl)-2,2-dimethyl-3-(6-methyl-5-((8′-methyl-1′,1′-dioxido-2,3,5,6-tetrahydrospiro[pyran-4,4′-pyrido[2,3-b][1,4,5]oxathiazepin]-2′(3′H)-yl)methyl)pyridin-3-yl)propanoic Acid] | < 1 nM | 41.7 nM
7 | Cc1ccc([C@H](c2ccc3c(nnn3C3CC3)c2C)C(C)(C)C(=O)O)cc1CN1CC2(CCNCC2)Oc2ncccc2S1(=O)=O (single isomer, unassigned) [Example 647, (*R)-3-(1-Cyclopropyl-4-methyl-1H-benzo[d][1,2,3]triazol-5-yl)-3-(3-((1′,1′-dioxidospiro[piperidine-4,4′-pyrido[2,3-b][1,4,5]oxathiazepin]-2′(3′H)-yl)methyl)-4-methylphenyl)-2,2-dimethylpropanoic Acid] | < 1 nM | 11.6 nM
8 | Cc1ccc([C@@H](CC(=O)O)c2ccn3c(C(F)F)nnc3c2C)cc1CN1CC2(CC2)Oc2ncc(Cl)cc2S1(=O)=O (single isomer, unassigned) [Example 531, (*R)-3-(3-((8′-Chloro-1′,1′-dioxidospiro[cyclopropane-1,4′-pyrido[2,3-b][1,4,5]oxathiazepin]-2′(3′H)-yl)methyl)-4-methylphenyl)-3-(3-(difluoromethyl)-8-methyl-[1,2,4]triazolo[4,3-a]pyridin-7-yl)propanoic Acid] | < 1 nM | 113 nM
9 | Cc1ccc([C@@H](CC(=O)O)c2cc(OC(F)F)c3c(c2)nnn3C)cc1CN1C[C@H]2CCCCN2c2ncccc2S1(=O)=O (single isomer, unassigned) [Example 3, (*R)-3-(7-(Difluoromethoxy)-1-methyl-1H-benzo[d][1,2,3]triazol-5-yl)-3-(3-(((*R)-5,5-dioxido-7,7a,8,9,10,11-hexahydro-6H-dipyrido[2,1-d:2′,3′-f][1,2,5]thiadiazepin-6-yl)methyl)-4-methylphenyl)propanoic Acid] | 0.041 nM | 35 nM
10 | Cc1ccc(C(CC(=O)O)c2ccc3c(nnn3CC3CC3)c2C)cc1CN1C[C@H]2CCCCN2c2ncccc2S1(=O)=O (mixture of isomers) [Example 234, (R/S)-3-(1-(Cyclopropylmethyl)-4-methyl-1H-benzo[d][1,2,3]triazol-5-yl)-3-(3-(((*R)-5,5-dioxido-7,7a,8,9,10,11-hexahydro-6H-dipyrido[2,1-d:2′,3′-f][1,2,5]thiadiazepin-6-yl)methyl)-4-methylphenyl)propanoic Acid] | < 1 nM | 3.3 nM
11 | Cc1ccc(C(CC(=O)O)c2ccc3c(nnn3C3CC3)c2C)cc1CN1CC2(COC2)Oc2ccccc2S1(=O)=O (racemic) [Example 214, (R/S)-3-(1-Cyclopropyl-4-methyl-1H-benzo[d][1,2,3]triazol-5-yl)-3-(3-((1,1-dioxidospiro[benzo[b][1,4,5]oxathiazepine-4,3′-oxetan]-2(3H)-yl)methyl)-4-methylphenyl)propanoic Acid] | < 1 nM | 5.1 nM
12 | CCn1nnc2c(C)c([C@@H](c3cnc(C)c(CN4CC5(CCOCC5)Oc5ncccc5S4(=O)=O)c3)C(C)(C)C(=O)O)ccc21 (single isomer, unassigned) [Example 59, (*S)-3-(5-((1′,1′-Dioxido-2,3,5,6-tetrahydrospiro[pyran-4,4′-pyrido[2,3-b][1,4,5]oxathiazepin]-2′(3′H)-yl)methyl)-6-methylpyridin-3-yl)-3-(1-ethyl-4-methyl-1H-benzo[d][1,2,3]triazol-5-yl)-2,2-dimethylpropanoic Acid] | 1.2 nM | 116 nM
13 | Cc1cnc2c(c1)S(=O)(=O)N(Cc1cc([C@@H](c3ccn4c(C(F)(F)F)nnc4c3C)C(C)(C)C(=O)O)ccc1C)CC1(CCNCC1)O2 (single isomer, unassigned) [Example 340, (*S)-2,2-Dimethyl-3-(4-methyl-3-((8′-methyl-1′,1′-dioxidospiro[piperidine-4,4′-pyrido[2,3-b][1,4,5]oxathiazepin]-2′(3′H)-yl)methyl)phenyl)-3-(8-methyl-3-(trifluoromethyl)-[1,2,4]triazolo[4,3-a]pyridin-7-yl)propanoic Acid] | 1.24 nM | 629 nM
